Data: patent publication US20040009927A1, “Methods and compounds for reducing biofilm formulation” (priority 2002, published 2004)

System: MG1655 and its csrA mutant TRMG1655, cya mutants and cya wild type
Conditions: cAMP 2 or 5 mM in growth medium; in most cases

Q: `Nc1ncnc2c1ncn2[C@@H]1O[C@@H]2COP(=O)(O)O[C@H]2[C@H]1O` [cAMP, cyclic AMP] was tested. Which “biofilm formation by cya wild type strains” value did it give?
A: increased biofilm formation
